Measurements published in ChEMBL document CHEMBL1759998, “Discovery and synthesis of novel 3-phenylcoumarin derivatives as antidepressant agents” (Bioorg Med Chem Lett, 2011).
Active and inactive are the calls of the source. The calls are words filed in the database; no cut-off is given here.

Legend:
Mus musculus [1] = assay: Antidepressant activity in Swiss albino mouse assessed as decrease in immobility time at 0.25 mg/kg, ip measured for 6 mins by forced swim test; format: functional, organism-based; parameters: dose 0.25 mg/kg
Mus musculus [2] = assay: Neurotoxicity in Swiss albino mouse assessed as deffect in motor coordination at 1 mg/kg, ip measured for 2 mins by rotarod test; format: toxicity, organism-based; parameters: dose 1 mg/kg, route intraperitoneal; conditions: in vivo
Mus musculus [3] = assay: Antidepressant activity in Swiss albino mouse assessed as decrease in immobility duration at 0.5 mg/kg, ip administered 30 mins prior to test measured after 30 mins by tail suspension test (reference value: 79.9%); format: functional; parameters: scale not given: the % may be the effect or the level left; conditions: route intraperitoneal
Mus musculus [4] = assay: Antidepressant activity in Swiss albino mouse assessed as decrease in immobility time at 0.5 mg/kg, ip measured for 6 mins by forced swim test; format: functional, organism-based; parameters: dose 0.5 mg/kg
[5] = Solubility of the compound; format: physicochemical
Mus musculus [6] = assay: Antidepressant activity in Swiss albino mouse assessed as decrease in immobility time at 30 mg/kg, ip measured for 6 mins by forced swim test; format: functional, organism-based; parameters: dose 30 mg/kg
Mus musculus [7] = assay: Antidepressant activity in Swiss albino mouse assessed as decrease in immobility duration at 30 mg/kg, ip administered 30 mins prior to test measured after 30 mins by tail suspension test (reference value: 79.9%); format: functional; parameters: scale not given: the % may be the effect or the level left; conditions: route intraperitoneal

With `COc1ccc(-c2cc3cc(C)c4ccccc4c3oc2=O)cc1` the Activity (Mus musculus [1]) was “Active”, the Activity (Mus musculus [2]) was “Non-toxic” and the Activity (Mus musculus [3]) was 49.9%. The Activity (Mus musculus [4]) was “Active”.
In the case of `COc1ccc(-c2cc3cc(C)c4ccccc4c3oc2=O)cc1OC`, the solubility [5] is reported as “Insoluble”.
With `CCC(C)c1cc(C=O)cc2cc(-c3ccc(OC)cc3)c(=O)oc12` (stereo not given) the Activity (Mus musculus [3]) was 71.4%.
`COc1ccc(-c2cc3cc(C=O)cc(C)c3oc2=O)cc1` gave an Activity (Mus musculus [3]) of 78.1%.
`CCC(C)c1cc(C=O)cc2cc(-c3cccc(OC)c3)c(=O)oc12` (stereo not given) gave an Activity (Mus musculus [3]) of 70.6%.
For `COc1ccccc1-c1cc2cc(C=O)cc(C)c2oc1=O`, the solubility [5] was “Insoluble”.
In the case of `CCC(C)c1cc(C=O)cc2cc(-c3ccc(OC)c(OC)c3)c(=O)oc12` (stereo not given), the Activity (Mus musculus [3]) is reported as 72.5%.
With `COc1ccc(-c2cc3cc(C=O)cc(C)c3oc2=O)c(OC)c1OC` the Activity (Mus musculus [2]) was “Non-toxic”, the Activity (Mus musculus [3]) was 47.3% and the Activity (Mus musculus [4]) was “Active”.
In the case of `COc1ccc(-c2cc3cc(C=O)cc(C)c3oc2=O)cc1OC`, the Activity (Mus musculus [1]) is reported as “Active”, the Activity (Mus musculus [2]) is reported as “Non-toxic” and the Activity (Mus musculus [3]) is reported as 39.1%. The Activity (Mus musculus [4]) was “Active”.
With `COc1ccc(-c2cc3cc(C)c4ccccc4c3oc2=O)c(OC)c1OC` the Activity (Mus musculus [3]) was 63.6%.
For `CN(C)CCCN1c2ccccc2CCc2ccccc21` [IMIPRAMINE], the Activity (Mus musculus [6]) was “Active” and the Activity (Mus musculus [7]) was 20.6%.
